pIC50: −log10 of the molar value.
Tests used:
CCR4 [1] = biological target: T1, CCR4 (Homo sapiens, UniProt P51679); assay: CEM cell chemotaxis (migration) assay to CCL22 (MDC) in 100% Fetal Bovine Serum (FBS); type: cell-based; details: CEM cells in 100% FBS with 1% HEPEs; recombinant human CCL22 0.1 nM; 37° C. 60 minutes
T1 construct: CEM Cells Endogenous Express CCR4; endogenous in cells; host or cells: CEM cells
T1 sequence (P51679 1-360): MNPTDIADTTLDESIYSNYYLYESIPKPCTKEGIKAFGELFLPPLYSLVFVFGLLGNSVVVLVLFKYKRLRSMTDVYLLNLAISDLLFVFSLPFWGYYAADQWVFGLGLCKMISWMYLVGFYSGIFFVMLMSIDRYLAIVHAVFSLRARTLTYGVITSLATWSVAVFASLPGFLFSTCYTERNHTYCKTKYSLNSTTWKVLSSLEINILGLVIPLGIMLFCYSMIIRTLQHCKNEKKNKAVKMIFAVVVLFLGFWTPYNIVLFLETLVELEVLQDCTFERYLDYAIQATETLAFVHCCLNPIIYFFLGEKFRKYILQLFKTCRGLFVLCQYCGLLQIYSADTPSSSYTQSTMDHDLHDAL
Description: (§1) CEM Cells Endogenous Express CCR4
(§2) A chemotaxis assay can be used to determine the efficacy of potential receptor antagonists at blocking the migration mediated through chemokine receptors, such as CCR4. This assay is routinely performed using the ChemoTX® microchamber system with a 5 μm pore-sized polycarbonate membrane.
(§3) FBS: CEM Cells are collected by centrifugation at 400×g at room temperature, then suspended at 5 million/ml in 100% Fetal Bovine Serum (FBS) with 1% HEPEs. The compound being tested is serially diluted from a maximum final concentration of 10 μM (or an equivalent volume of its solvent (DMSO)) and is then added to the cell/buffer mixture. Separately, recombinant human CCL22 (MDC) at its EC50 concentration (0.1 nM) is placed in the lower wells of the ChemoTX® plate. The 5-μm (pore size) polycarbonate membrane was placed onto the plate, and 20 μL of the cell/compound mixture is transferred onto each well of the membrane. The plates are incubated at 37° C. for 60 minutes, after which the polycarbonate membranes are removed and 5 μl of the DNA-intercalating dye CyQUANT (Invitrogen, Carlsbad, CA) is added to the lower wells. The amount of fluorescence, corresponding to the number of migrated cells, is measured using a Spectrafluor Plus plate reader (TECAN, San Jose, CA).

CCR4 [2] = biological target: T1, CCR4; assay: CEM cell chemotaxis (migration) assay to CCL22 (MDC) in HBSS buffer with 0.1% BSA; type: cell-based; details: CEM cells in HBSS with 0.1% BSA; recombinant human CCL22 0.1 nM; 37° C. 60 minutes
Description: as §1, §2
as §3, with “HBSS:” for “FBS:”, “Hanks' Balanced Salt Solution (HBSS) buffer” for “100% Fetal Bovine Serum (FBS)”, “0.1% BSA.” for “1% HEPEs.”

pIC50 (CCR4 [1]) | pIC50 (CCR4 [2]) | Compound
> 7.00 | > 7.00 | C[C@@H](Nc1nc(N2CCC(CO)(NC(=O)[C@H]3CCCN3)CC2)ncc1Cl)c1ccc(Cl)cc1Cl [Example 1.003]
> 7.00 | > 7.00 | C[C@@H](Nc1nc(N2CCN(C(=O)[C@H]3CCCN3)CC2)ncc1Cl)c1ccc(Cl)cc1F [Example 1.004]
> 7.00 | > 7.00 | CNC1CCN(C(=O)N2CCN(c3ncc(Cl)c(N[C@H](C)c4ccc(Cl)cc4Cl)n3)CC2)C1 (some centres unmarked) [Example 1.005]
> 7.00 | > 7.00 | C[C@@H](Nc1ncc(C(F)(F)F)c(N2CCN(C(=O)[C@H]3CCCN3)CC2)n1)c1ccc(Cl)cc1Cl [Example 1.006]
> 7.00 | > 7.00 | C[C@@H](Nc1nc(N2CCN(C(=O)[C@H]3CCCN3)CC2)ncc1C(F)(F)F)c1ccc(Cl)cc1Cl [Example 1.007]
> 7.00 | > 7.00 | C[C@@H](Nc1nc(N2CCC(N(C)C(=O)[C@H]3CCCN3)CC2)ncc1Cl)c1ccc(Cl)cc1Cl [Example 1.008]
> 7.00 | > 7.00 | C[C@@H](Nc1nc(N2CCC(NC(=O)C3CCN(C)C3)CC2)ncc1Cl)c1ccc(Cl)cc1Cl (some centres unmarked) [Example 1.009]
> 7.00 | > 7.00 | C[C@@H](Nc1nc(N2CCN(C(=O)CCN(C)C)CC2)ncc1Cl)c1ccc(Cl)cc1Cl [Example 1.010]
> 7.00 | > 7.00 | C[C@@H](Nc1nc(N2CCN(C(=O)[C@H]3CCCN3)[C@@H](C)C2)ncc1Cl)c1ccc(Cl)cc1Cl [Example 1.011]
> 7.00 | > 7.00 | C[C@@H](Nc1nc(N2CC[C@H](NC(=O)[C@H]3CCCN3)[C@@H](O)C2)ncc1Cl)c1ccc(Cl)cc1Cl [Example 1.012]
> 7.00 | > 7.00 | C[C@@H](Nc1nc(N2CC[C@@H](NC(=O)[C@H]3CCCN3)[C@H](O)C2)ncc1Cl)c1ccc(Cl)cc1Cl [Example 1.013]
> 7.00 | > 7.00 | C[C@@H](Nc1nc(N2CC[C@H](NC(=O)[C@H]3CCCN3)[C@H](O)C2)ncc1Cl)c1ccc(Cl)cc1Cl [Example 1.014]
> 7.00 | > 7.00 | C[C@@H](Nc1nc(N2CC[C@@H](NC(=O)[C@H]3CCCN3)C2)ncc1Cl)c1ccc(Cl)cc1Cl [Example 1.015]
6.00 to 7.00 |  | C[C@@H](Nc1nc(N2CC[C@H](NC(=O)[C@H]3C[C@@H](O)CN3)[C@@H](O)C2)ncc1Cl)c1ccc(Cl)cc1Cl [Example 1.216]
6.00 to 7.00 |  | C[C@@H](Nc1nc(N2CCN(C(=O)c3cn(C)cn3)CC2)ncc1Cl)c1ccc(Cl)cc1Cl [Example 1.217]
< 6.00 |  | C[C@@H](Nc1nc(N2CC[C@H](NC(=O)[C@H]3CN(C)C(=O)N3)[C@@H](O)C2)ncc1Cl)c1ccc(Cl)cc1Cl [Example 1.218]
6.00 to 7.00 |  | C[C@@H](Nc1nc(N2CCN(C(=O)[C@H]3CCCN3CCC(F)(F)F)CC2)ncc1Cl)c1ccc(Cl)cc1Cl [Example 1.219]
> 7.00 |  | C[C@@H](Nc1nc(N2CCC([C@@H]3CCCN(CCC(=O)O)C3)CC2)ncc1Cl)c1ccc(Cl)cc1Cl [Example 1.220]
> 7.00 |  | C[C@@H](Nc1nc(N2CCC([C@H]3CCCN(CCC(=O)O)C3)CC2)ncc1Cl)c1ccc(Cl)cc1Cl [Example 1.221]
> 7.00 |  | C[C@@H](Nc1nc(N2CCN(C(=O)[C@H]3CNC(=O)N3)CC2)ncc1Cl)c1ccc(Cl)cc1Cl [Example 1.222]
< 6.00 |  | C[C@@H](Nc1nc(N2CCC(NC(=O)[C@H]3CN(C)C(=O)N3)CC2)ncc1Cl)c1ccc(Cl)cc1Cl [Example 1.223]
> 7.00 |  | C[C@@H](Nc1nc(N2CC[C@H](NC(=O)[C@H]3CCCN3C)[C@@H](O)C2)ncc1Cl)c1ccc(Cl)cc1Cl [Example 1.224]
> 7.00 |  | C[C@@H](Nc1nc(N2CCN(C(=O)[C@H]3CCC(C)(C)N3)CC2)ncc1Cl)c1ccc(Cl)cc1Cl [Example 1.225]
> 7.00 |  | C[C@@H](Nc1nc(N2CCN(C(=O)[C@H]3CN(C)C(=O)N3)CC2)ncc1Cl)c1ccc(Cl)cc1Cl [Example 1.227]
6.00 to 7.00 |  | C[C@@H](Nc1nc(N2CCC(C(=O)N[C@@H]3CCNC3=O)CC2)ncc1Cl)c1ccc(Cl)cc1Cl [Example 1.228]

pIC50 (CCR4 [1]) | pIC50 (CCR4 [2]) | Compound
< 6.00 |  | C[C@@H](Nc1nc(N2CCN(C(=O)[C@@H]3CNCC(=O)N3)CC2)ncc1Cl)c1ccc(Cl)cc1Cl [Example 1.229]
> 7.00 |  | C[C@@H](Nc1nc(N2CCC(O[C@H]3CCNC3)CC2)ncc1Cl)c1ccc(Cl)cc1Cl [Example 1.230]
> 7.00 |  | C[C@@H](Nc1nc(N2CCN(C(=O)C3(C)CCN(C)C3)CC2)ncc1Cl)c1ccc(Cl)cc1Cl (some centres unmarked) [Example 1.231]
6.00 to 7.00 |  | C[C@@H](Nc1nc(N2CCN(C(=O)[C@H]3CC(=O)N3)CC2)ncc1Cl)c1ccc(Cl)cc1Cl [Example 1.232]
< 6.00 |  | C[C@@H](Nc1nc(N2CCC(C(=O)N[C@H]3CCNC3=O)CC2)ncc1Cl)c1ccc(Cl)cc1Cl [Example 1.233]
6.00 to 7.00 |  | C[C@@H](Nc1nc(N2CCN(C(=O)C[C@H]3CCC(=O)N3)CC2)ncc1Cl)c1ccc(Cl)cc1Cl [Example 1.234]
< 6.00 |  | C[C@@H](Nc1nc(N2CCC(C(=O)NC[C@H]3CCC(=O)N3)CC2)ncc1Cl)c1ccc(Cl)cc1Cl [Example 1.235]
> 7.00 |  | C[C@@H](Nc1nc(N2CCN(C(=O)[C@H]3CCN(C)C3)CC2)ncc1C(N)=O)c1ccc(Cl)cc1Cl [Example 1.236]
6.00 to 7.00 |  | CC(=O)N1CCC[C@@H]1C(=O)N1CCN(c2ncc(Cl)c(N[C@H](C)c3ccc(Cl)cc3Cl)n2)CC1 [Example 1.237]
> 7.00 |  | C[C@@H](Nc1nc(N2CCN(C(=O)[C@H]3CCCC(=O)N3)CC2)ncc1Cl)c1ccc(Cl)cc1Cl [Example 1.238]
> 7.00 |  | C[C@@H](Nc1nc(N2CCN(C(=O)[C@H]3CCC(=O)N3C)CC2)ncc1Cl)c1ccc(Cl)cc1Cl [Example 1.239]
> 7.00 |  | C[C@@H](Nc1nc(N2CCN(C(=O)C3CCCC(=O)N3)CC2)ncc1Cl)c1ccc(Cl)cc1Cl (some centres unmarked) [Example 1.240]
> 7.00 |  | C[C@@H](Nc1nc(N2CCC(OC3CCN(C)C3)CC2)ncc1Cl)c1ccc(Cl)cc1Cl (some centres unmarked) [Example 1.241]
> 7.00 |  | CO[C@H]1CN(c2ncc(Cl)c(N[C@H](C)c3ccc(Cl)cc3Cl)n2)CC[C@@H]1NC(=O)[C@H]1CCCN1 [Example 1.242]
> 7.00 |  | C[C@@H](Nc1nc(N2CCN(C(=O)[C@H]3CCN(C)C3)CC2)ncc1C#N)c1ccc(Cl)cc1Cl [Example 1.243]
< 6.00 |  | C[C@@H](Nc1nc(N2CCN(C(=O)[C@@]3(C)CCC(=O)N3)CC2)ncc1Cl)c1ccc(Cl)cc1Cl [Example 1.244]
> 7.00 |  | C[C@@H](Nc1nc(N2CC[C@H](NC(=O)CCN(C)C)[C@@H](O)C2)ncc1Cl)c1ccc(Cl)cc1Cl [Example 1.245]
6.00 to 7.00 |  | C[C@@H](Nc1nc(N2CC[C@H](NC(=O)[C@@]3(C)CCCN3)[C@@H](O)C2)ncc1Cl)c1ccc(Cl)cc1Cl [Example 1.246]
> 7.00 |  | C[C@@H]1CC[C@H](C(=O)N2CCN(c3ncc(Cl)c(N[C@H](C)c4ccc(Cl)cc4Cl)n3)CC2)N1 [Example 1.247]
> 7.00 |  | C[C@@H]1CC[C@H](C(=O)N[C@H]2CCN(c3ncc(Cl)c(N[C@H](C)c4ccc(Cl)cc4Cl)n3)C[C@@H]2O)N1 [Example 1.248]
 | > 7.00 | C[C@@H](Nc1nc(N2CCN(C(=O)[C@H]3CCC(=O)N3)CC2)ncc1Cl)c1c(F)cc(Cl)cc1Cl [Example 1.250]
> 7.00 |  | C[C@H](Nc1nc(N2CCN(C(=O)[C@H]3CCC(=O)N3)CC2)ncc1Cl)c1ncc(Cl)cc1Cl [Example 1.255]
> 7.00 |  | Cc1nc(N2CCN(C(=O)[C@H]3CCC(=O)N3)CC2)nc(N[C@H](C)c2c(F)cc(Cl)cc2Cl)c1Cl [Example 1.260]
> 7.00 |  | C[C@@H](Nc1nc(N2CCN(C(=O)[C@H]3CCC(=O)N3)CC2)nc(C(F)(F)F)c1Cl)c1ccc(Cl)cc1Cl [Example 1.261]

— patent publication US20230382894A1, “CCR4 ANTAGONISTS” (CHEMOCENTRYX, INC., priority 2022, published 2023)
